Results taken from PubChem BioAssay AID2060604 (Molecular Pharmacology Branch, DTP, NCI, 2025).

Test system: 379773-124-R-J2-PDC complex spheroids, viability % test/control
Assay: Anticancer human tumor 379773-124-R-J2-PDC patient-derived endometrial carcinoma cell line growth inhibition [CLK]
Conditions: for IC50: curve of first compound; for viability, T/C: stronger effect = lower value
Outline: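 Multi-cell-type spheroids combined patient-derived tumor cells with HUVEC endothelial cells and human mesenchymal stem cells. Paired agents were dosed in half-log steps down from about clinical Cmax, or from 10 microM where Cmax was unknown.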

[1] = second compound 0.0316 µM, first compound 0.0316 µM
[2] = second compound 0.0316 µM, first compound 0.1 µM
[3] = second compound 0.0316 µM, first compound 0.316 µM
[4] = second compound 0.0316 µM, first compound 1 µM
[5] = second compound 0.0316 µM, first compound 3.16 µM
[6] = second compound 0.0316 µM, first compound 10 µM
[7] = second compound 0.1 µM, first compound 0.0316 µM
[8] = second compound 0.1 µM, first compound 0.1 µM
[9] = second compound 0.1 µM, first compound 0.316 µM
[10] = second compound 0.1 µM, first compound 1 µM
[11] = second compound 0.1 µM, first compound 3.16 µM
[12] = second compound 0.1 µM, first compound 10 µM
[13] = second compound 0.316 µM, first compound 0.0316 µM
[14] = second compound 0.316 µM, first compound 0.1 µM
[15] = second compound 0.316 µM, first compound 0.316 µM
[16] = second compound 0.316 µM, first compound 1 µM
[17] = second compound 0.316 µM, first compound 3.16 µM
[18] = second compound 0.316 µM, first compound 10 µM
[19] = second compound 1 µM, first compound 0.0316 µM
[20] = second compound 1 µM, first compound 0.1 µM
[21] = second compound 1 µM, first compound 0.316 µM
[22] = second compound 1 µM, first compound 1 µM
[23] = second compound 1 µM, first compound 3.16 µM
[24] = second compound 1 µM, first compound 10 µM
[25] = second compound 3.16 µM, first compound 0.0316 µM
[26] = second compound 3.16 µM, first compound 0.1 µM
[27] = second compound 3.16 µM, first compound 0.316 µM
[28] = second compound 3.16 µM, first compound 1 µM
[29] = second compound 3.16 µM, first compound 3.16 µM
[30] = second compound 3.16 µM, first compound 10 µM
[31] = second compound 10 µM, first compound 0.0316 µM
[32] = second compound 10 µM, first compound 0.1 µM
[33] = second compound 10 µM, first compound 0.316 µM
[34] = second compound 10 µM, first compound 1 µM
[35] = second compound 10 µM, first compound 3.16 µM
[36] = second compound 10 µM, first compound 10 µM
[37] = second compound 0.0316 µM, first compound 0.00316 µM
[38] = second compound 0.0316 µM, first compound 0.01 µM
[39] = second compound 0.1 µM, first compound 0.00316 µM
[40] = second compound 0.1 µM, first compound 0.01 µM
[41] = second compound 0.316 µM, first compound 0.00316 µM
[42] = second compound 0.316 µM, first compound 0.01 µM
[43] = second compound 1 µM, first compound 0.00316 µM
[44] = second compound 1 µM, first compound 0.01 µM
[45] = second compound 3.16 µM, first compound 0.00316 µM
[46] = second compound 3.16 µM, first compound 0.01 µM
[47] = second compound 10 µM, first compound 0.00316 µM
[48] = second compound 10 µM, first compound 0.01 µM
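Note: compound exposure lasted seven days before the viability readout.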
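Throughout, for viability, T/C: 100% = DMSO vehicle control wells.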

CC(=O)O[C@H]1C(=O)[C@@]2(C)[C@H]([C@H](OC(=O)c3ccccc3)[C@]3(O)C[C@H](OC(=O)[C@H](O)[C@@H](NC(=O)c4ccccc4)c4ccccc4)C(C)=C1C3(C)C)[C@]1(OC(C)=O)CO[C@@H]1C[C@@H]2O + CNC(=O)c1ccc(Nc2nc(OC3CCCC3)c3c(-c4ccc5nc(C)oc5c4)c[nH]c3n2)c(OC)c1
IC50 (second compound 0.0316 µM): < 0.0316 µM
IC50 (second compound 0.1 µM): < 0.0316 µM
IC50 (second compound 0.316 µM): < 0.0316 µM
IC50 (second compound 1 µM): < 0.0316 µM
IC50 (second compound 3.16 µM): < 0.0316 µM
IC50 (second compound 10 µM): < 0.0316 µM
viability, T/C [1]: 9.1%
viability, T/C [2]: 12.2%
viability, T/C [3]: 13.4%
viability, T/C [4]: 9.72%
viability, T/C [5]: 15.4%
viability, T/C [6]: 17.7%
viability, T/C [7]: 24.6%
viability, T/C [8]: 28.4%
viability, T/C [9]: 28.9%
viability, T/C [10]: 34.6%
viability, T/C [11]: 25%
viability, T/C [12]: 33.2%
viability, T/C [13]: 27.6%
viability, T/C [14]: 24.8%
viability, T/C [15]: 33.2%
viability, T/C [16]: 33.3%
viability, T/C [17]: 32.2%
viability, T/C [18]: 27.7%
viability, T/C [19]: 30%
viability, T/C [20]: 28.4%
viability, T/C [21]: 33.6%
viability, T/C [22]: 36%
viability, T/C [23]: 29.2%
viability, T/C [24]: 37.7%
viability, T/C [25]: 30%
viability, T/C [26]: 27.3%
viability, T/C [27]: 28.9%
viability, T/C [28]: 25.5%
viability, T/C [29]: 26.4%
viability, T/C [30]: 31.8%
viability, T/C [31]: 29.1%
viability, T/C [32]: 33.5%
viability, T/C [33]: 31.6%
viability, T/C [34]: 35.1%
viability, T/C [35]: 30.7%
viability, T/C [36]: 36.1%

CCc1c2c(nc3ccc(O)cc13)-c1cc3c(c(=O)n1C2)COC(=O)[C@]3(O)CC + CNC(=O)c1ccc(Nc2nc(OC3CCCC3)c3c(-c4ccc5nc(C)oc5c4)c[nH]c3n2)c(OC)c1
IC50 (second compound 0.0316 µM): < 0.00316 µM
IC50 (second compound 0.1 µM): < 0.00316 µM
IC50 (second compound 0.316 µM): < 0.00316 µM
IC50 (second compound 1 µM): < 0.00316 µM
IC50 (second compound 3.16 µM): < 0.00316 µM
IC50 (second compound 10 µM): < 0.00316 µM
viability, T/C [37]: 12.8%
viability, T/C [38]: 6.83%
viability, T/C [1]: 2.79%
viability, T/C [2]: 1.86%
viability, T/C [3]: 0.94%
viability, T/C [4]: 0.4%
viability, T/C [39]: 7.91%
viability, T/C [40]: 4.87%
viability, T/C [7]: 2.4%
viability, T/C [8]: 1.19%
viability, T/C [9]: 0.65%
viability, T/C [10]: 0.35%
viability, T/C [41]: 6.52%
viability, T/C [42]: 5.08%
viability, T/C [13]: 2.12%
viability, T/C [14]: 1.42%
viability, T/C [15]: 0.6%
viability, T/C [16]: 0.25%
viability, T/C [43]: 5.11%
viability, T/C [44]: 4.25%
viability, T/C [19]: 2.43%
viability, T/C [20]: 0.96%
viability, T/C [21]: 0.45%
viability, T/C [22]: 0.37%
viability, T/C [45]: 5.35%
viability, T/C [46]: 4.96%
viability, T/C [25]: 1.98%
viability, T/C [26]: 1.08%
viability, T/C [27]: 0.6%
viability, T/C [28]: 0.2%
viability, T/C [47]: 5.38%
viability, T/C [48]: 4.45%
viability, T/C [31]: 2.55%
viability, T/C [32]: 1.19%
viability, T/C [33]: 0.79%
viability, T/C [34]: 0.39%

Cn1ncnc1[C@H]1c2n[nH]c(=O)c3cc(F)cc(c23)N[C@@H]1c1ccc(F)cc1 + CNC(=O)c1ccc(Nc2nc(OC3CCCC3)c3c(-c4ccc5nc(C)oc5c4)c[nH]c3n2)c(OC)c1
IC50 (second compound 0.0316 µM): 0.0137 µM
IC50 (second compound 0.1 µM): < 0.000316 µM
IC50 (second compound 0.316 µM): < 0.000316 µM
IC50 (second compound 1 µM): < 0.000316 µM
IC50 (second compound 3.16 µM): < 0.000316 µM
IC50 (second compound 10 µM): < 0.000316 µM
viability, T/C (second compound 0.0316 µM, first compound 0.000316 µM): 71.4%
viability, T/C (second compound 0.0316 µM, first compound 0.001 µM): 64.9%
viability, T/C [37]: 65.7%
viability, T/C [38]: 56.2%
viability, T/C [1]: 34.6%
viability, T/C [2]: 14.7%
viability, T/C (second compound 0.1 µM, first compound 0.000316 µM): 41.1%
viability, T/C (second compound 0.1 µM, first compound 0.001 µM): 35.1%
viability, T/C [39]: 26.6%
viability, T/C [40]: 26.9%
viability, T/C [7]: 17.6%
viability, T/C [8]: 13.1%
viability, T/C (second compound 0.316 µM, first compound 0.000316 µM): 39%
viability, T/C (second compound 0.316 µM, first compound 0.001 µM): 38.5%
viability, T/C [41]: 32.1%
viability, T/C [42]: 27.2%
viability, T/C [13]: 17.1%
viability, T/C [14]: 8.94%
viability, T/C (second compound 1 µM, first compound 0.000316 µM): 39.4%
viability, T/C (second compound 1 µM, first compound 0.001 µM): 30.3%
viability, T/C [43]: 27.8%
viability, T/C [44]: 21.5%
viability, T/C [19]: 14%
viability, T/C [20]: 7.18%
viability, T/C (second compound 3.16 µM, first compound 0.000316 µM): 35.4%
viability, T/C (second compound 3.16 µM, first compound 0.001 µM): 31.1%
viability, T/C [45]: 24.1%
viability, T/C [46]: 25.2%
viability, T/C [25]: 16.6%
viability, T/C [26]: 10.1%
viability, T/C (second compound 10 µM, first compound 0.000316 µM): 25.4%
viability, T/C (second compound 10 µM, first compound 0.001 µM): 30.7%
viability, T/C [47]: 23.5%
viability, T/C [48]: 19.1%
viability, T/C [31]: 15.1%
viability, T/C [32]: 9.79%

Nc1ccn(C2OC(CO)C(O)C2(F)F)c(=O)n1 (stereo not given) + CNC(=O)c1ccc(Nc2nc(OC3CCCC3)c3c(-c4ccc5nc(C)oc5c4)c[nH]c3n2)c(OC)c1
IC50 (second compound 0.0316 µM): < 0.0316 µM
IC50 (second compound 0.1 µM): < 0.0316 µM
IC50 (second compound 0.316 µM): < 0.0316 µM
IC50 (second compound 1 µM): < 0.0316 µM
IC50 (second compound 3.16 µM): < 0.0316 µM
IC50 (second compound 10 µM): < 0.0316 µM
viability, T/C [1]: 6.55%
viability, T/C [2]: 3.76%
viability, T/C [3]: 4.74%
viability, T/C [4]: 5.45%
viability, T/C [5]: 5.63%
viability, T/C [6]: 3.43%
viability, T/C [7]: 7.18%
viability, T/C [8]: 4.04%
viability, T/C [9]: 4.89%
viability, T/C [10]: 3%
viability, T/C [11]: 4.22%
viability, T/C [12]: 2.03%
viability, T/C [13]: 6.96%
viability, T/C [14]: 5.27%
viability, T/C [15]: 3.29%
viability, T/C [16]: 3.59%
viability, T/C [17]: 3.28%
viability, T/C [18]: 2.14%
viability, T/C [19]: 12.8%
viability, T/C [20]: 6.01%
viability, T/C [21]: 3.29%
viability, T/C [22]: 2.77%
viability, T/C [23]: 3.38%
viability, T/C [24]: 1.2%
viability, T/C [25]: 13.6%
viability, T/C [26]: 6.51%
viability, T/C [27]: 2.77%
viability, T/C [28]: 2.75%
viability, T/C [29]: 2.62%
viability, T/C [30]: 0.99%
viability, T/C [31]: 13.8%
viability, T/C [32]: 8.14%
viability, T/C [33]: 4.09%
viability, T/C [34]: 2.72%
viability, T/C [35]: 3.57%
viability, T/C [36]: 1.76%

O=c1[nH]cc(F)c(=O)[nH]1 + CNC(=O)c1ccc(Nc2nc(OC3CCCC3)c3c(-c4ccc5nc(C)oc5c4)c[nH]c3n2)c(OC)c1
IC50 (second compound 0.0316 µM): > 10 µM
IC50 (second compound 0.1 µM): < 0.0316 µM
IC50 (second compound 0.316 µM): < 0.0316 µM
IC50 (second compound 1 µM): < 0.0316 µM
IC50 (second compound 3.16 µM): < 0.0316 µM
IC50 (second compound 10 µM): < 0.0316 µM
viability, T/C [1]: 86.5%
viability, T/C [2]: 76.3%
viability, T/C [3]: 80.7%
viability, T/C [4]: 70.5%
viability, T/C [5]: 70.8%
viability, T/C [6]: 54.5%
viability, T/C [7]: 50.4%
viability, T/C [8]: 35.9%
viability, T/C [9]: 31.5%
viability, T/C [10]: 33.3%
viability, T/C [11]: 29.7%
viability, T/C [12]: 28.2%
viability, T/C [13]: 41%
viability, T/C [14]: 35.2%
viability, T/C [15]: 34.5%
viability, T/C [16]: 33.7%
viability, T/C [17]: 24%
viability, T/C [18]: 18.1%
viability, T/C [19]: 36.9%
viability, T/C [20]: 29.2%
viability, T/C [21]: 30.5%
viability, T/C [22]: 27.2%
viability, T/C [23]: 20.2%
viability, T/C [24]: 10.7%
viability, T/C [25]: 36.1%
viability, T/C [26]: 37.1%
viability, T/C [27]: 34.8%
viability, T/C [28]: 19.3%
viability, T/C [29]: 15.3%
viability, T/C [30]: 9.65%
viability, T/C [31]: 42.5%
viability, T/C [32]: 31.3%
viability, T/C [33]: 28.6%
viability, T/C [34]: 23.5%
viability, T/C [35]: 14.4%
viability, T/C [36]: 9.98%
